For 47 compounds, Activity, inhibition and IC50 results are on record in ChEMBL document CHEMBL5149970 (J Med Chem, 2021).

Calls of active or inactive are those of the source. The rule behind the calls is not given here.

The first data set concerns CFU-GM. Kind of data set: Inhibition of colony formation in human CFU-GM cells assessed as reduction in colony number and size at 1 uM incubated for 14 days by crystal violet staining based analysis. Type of data set: toxicity, cell-based. The following applies: 336 h, time 14 day.
In the case of `COc1cccc2c1C(=O)c1c(O)c3c(c(O)c1C2=O)C[C@@](O)(C(=O)CO)C[C@@H]3O[C@H]1C[C@H](N)[C@H](O)[C@H](C)O1` [DOXORUBICIN], the Activity entry is “Toxic”.

In a further data set the test system is EU-1. The experiment in a line: Inhibition of MDM2/XIAP IRES mRNA interaction in human EU-1 cells assessed as increase in PARP cleavage at 5 uM measured for 24 hrs by western blot analysis. Format: cell-based.
Conditions: not given
Background: A western blot detects proteins with antibodies after separation by electrophoresis.
Consider `Cc1ccc(NS(=O)(=O)c2ccc3c(c2)C2C=CCC2C(c2ccc(C(=O)O)cc2)N3)cc1C` (stereo unspecified), for which the inhibition result was “Active”.

The subject of a further data set is EU-1. The experiment in a line: Inhibition of MDM2/XIAP IRES mRNA interaction in human EU-1 cells assessed as increase in caspase-3 cleavage at 5 uM measured for 24 hrs by western blot analysis. Format: cell-based.
Conditions: not given
Take `Cc1ccc(NS(=O)(=O)c2ccc3c(c2)C2C=CCC2C(c2ccc(C(=O)O)cc2)N3)cc1C` (stereo unspecified): the inhibition entry is “Active”.

A further data set deals with EU-1. Kind of data set: Inhibition of MDM2/XIAP IRES mRNA interaction in human EU-1 cells assessed as increase in caspase-9 cleavage at 5 uM measured for 24 hrs by western blot analysis. Type of data set: cell-based.
Conditions: not given
As to `Cc1ccc(NS(=O)(=O)c2ccc3c(c2)C2C=CCC2C(c2ccc(C(=O)O)cc2)N3)cc1C` (stereo unspecified), the inhibition entry is “Active”.

System in a further data set: not listed separately
The experiment in a line: Antiproliferative activity against human EU-1 cells assessed as inhibition of cell growth incubated for 48 hrs by WST assay. Type of data set: functional, cell-based. The note with it: EU-1, 48 h.
In general, IC50 refers to the midpoint of a concentration-inhibition curve. `CC(=O)c1cccc(C2Nc3ccc(S(=O)(=O)Nc4ccc(C)c(C)c4)cc3C3OCCC23)c1` (stereo unspecified): the concentration for half-maximal inhibition (IC50) turned out to be 2 µM. Same read-out and setting: the value for `Cc1ccc(NS(=O)(=O)c2ccc3c(c2)C2OCCC2C(c2cccc(C(=O)C(C)C)c2)N3)cc1C` (stereo unspecified) was 3.6 µM; that for `Cc1ccc(NS(=O)(=O)c2ccc3c(c2)C2NCCC2C(c2ccc(C(=O)C(C)C)cc2)N3)cc1C` (stereo unspecified) was 3.8 µM; that for `Cc1ccc(NS(=O)(=O)c2ccc3c(c2)C2c4ccccc4CC2C(c2ccc(C(=O)O)cc2)N3)cc1C` (stereo unspecified) was 20.5 µM. Same read-out and setting: as for `Cc1ccc(NS(=O)(=O)c2ccc3c(c2Cl)C2C=CCC2C(c2ccc(S(C)(=O)=O)cc2)N3)cc1C` (stereo unspecified), the figure is 23.4 µM; as for `Cc1ccc(NS(=O)(=O)c2ccc3c(c2)C2OCCCC2C(c2ccc(C(=O)O)cc2)N3)cc1C` (stereo unspecified), greater than 50 µM; as for `Cc1cc(NS(=O)(=O)c2ccc3c(c2)C2OCCC2C(c2ccc(C(=O)C(C)C)cc2)N3)ccc1F` (stereo unspecified), 2.9 µM. Same read-out and setting: the value for `Cc1ccc(N(C)S(=O)(=O)c2ccc3c(c2)C2OCCC2C(c2ccc(C(=O)C(C)C)cc2)N3)cc1C` (stereo unspecified) was 1.6 µM; that for `Cc1ccc(NS(=O)(=O)c2cc3c(cc2Cl)NC(c2ccc(S(C)(=O)=O)cc2)C2CC=CC32)cc1C` (stereo unspecified) was greater than 50 µM. Regarding `Cc1ccc(NS(=O)(=O)c2ccc3c(c2)[C@@H]2OCC[C@@H]2[C@@H](c2ccc(C(=O)C(C)C)cc2)N3)cc1C`, the concentration for half-maximal inhibition (IC50) is 1.9 µM. With `COC(=O)c1ccc(C2Nc3ccc(S(=O)(=O)Nc4ccc(C)c(C)c4)cc3C3NCCC23)cc1` (stereo unspecified), the concentration for half-maximal inhibition (IC50) was 3.5 µM.

Consider `Cc1ccc(NS(=O)(=O)c2ccc3c(c2)C2OCCC2C(c2ccc(C(=O)c4ccccc4)cc2)N3)cc1C` (stereo unspecified), for which the IC50 is 3.2 µM. For `COC(=O)c1ccc(C2Nc3ccc(S(=O)(=O)Nc4ccc(C)c(C)c4)cc3C3OCCCC23)cc1` (stereo unspecified), the IC50 worked out at 4.6 µM. As for `COC(=O)c1ccc(C2Nc3ccc(S(=O)(=O)Nc4ccc(C)c(C)c4)cc3C3OCCC23)cc1` (stereo unspecified), the 50% inhibitory concentration (IC50) stood at 2.2 µM. On the same count and under the same terms, the value for `Cc1ccc(NS(=O)(=O)c2ccc3c(c2)C2OCCC2C(c2ccc(Br)cc2)N3)cc1C` (stereo unspecified) was 3.6 µM. The same measure, in the same setting: as for `Cc1ccc(NS(=O)(=O)c2ccc3c(c2)C2OCCC2C(c2ccc(C(=O)C(C)C)cc2)N3)cc1` (stereo unspecified), the figure is 3.3 µM; as for `Cc1ccc(NS(=O)(=O)c2ccc3c(c2)C2OCCC2C(c2ccc(C(=O)C4CC4)cc2)N3)cc1C` (stereo unspecified), 5.2 µM. The same measure, in the same setting: the value for `Cc1ccc(NS(=O)(=O)c2ccc3c(c2)[C@@H]2OCC[C@@H]2[C@H](c2ccc(C(=O)C(C)C)cc2)N3)cc1C` was 1.6 µM; that for `CC(C)C(=O)c1ccc(C2Nc3ccc(S(=O)(=O)Nc4ccc(Br)c(Br)c4)cc3C3OCCC23)cc1` (stereo unspecified) was 5.2 µM; that for `CC(=O)c1ccc(C2Nc3ccc(S(=O)(=O)Nc4ccc(C)c(C)c4)cc3C3OCCC23)cc1` (stereo unspecified) was 0.5 µM. On to `Cc1ccc(NS(=O)(=O)c2ccc3c(c2)C2OCCC2C(c2ccc(C(=O)C(C)C)cc2)N3)cc1Cl` (stereo unspecified), for which the IC50 worked out at 1.6 µM.

Regarding `Cc1ccc(NS(=O)(=O)c2ccc3c(c2)C2C=CCC2C(c2ccc(C(=O)O)cc2)N3)cc1C` (stereo unspecified), the concentration for half-maximal inhibition (IC50) was 7.5 µM. On the same count and under the same terms, the value for `Cc1ccc(NS(=O)(=O)c2ccc3c(c2)C2OCCC2C(c2ccc(C(=O)O)cc2)N3)cc1C` (stereo unspecified) was greater than 50 µM; that for `COC(=O)c1ccc(C2Nc3cc(Cl)c(S(=O)(=O)Nc4ccc(C)c(C)c4)cc3C3OCCC23)cc1` (stereo unspecified) was greater than 50 µM; that for `Cc1ccc(NS(=O)(=O)c2ccc3c(c2)C2OCCC2C(c2cccc4ccccc24)N3)cc1C` (stereo unspecified) was 6.1 µM. The same measure, in the same setting: the value for `C=CC(=O)c1ccc(C2Nc3ccc(S(=O)(=O)Nc4ccc(C)c(C)c4)cc3C3OCCC23)cc1` (stereo unspecified) was 30 µM; that for `COC(=O)c1ccc(C2Nc3c(Cl)cc(S(=O)(=O)Nc4ccc(C)c(C)c4)cc3C3OCCC23)cc1` (stereo unspecified) was greater than 50 µM; that for `Cc1ccc(NS(=O)(=O)c2ccc3c(c2)C2C=CCC2C(c2ccc(S(C)(=O)=O)cc2)N3)cc1C` (stereo unspecified) was 6.2 µM. The same measure, in the same setting: the value for `Cc1ccc(NS(=O)(=O)c2ccc3c(c2)C2C=CCC2C(c2ccc(C(=O)C(C)C)cc2)N3)cc1C` (stereo unspecified) was 2.7 µM; that for `Cc1ccc(NS(=O)(=O)c2ccc3c(c2)C2CCCC2C(c2ccc(C(=O)C(C)C)cc2)N3)cc1C` (stereo unspecified) was 7 µM; that for `CC(C)C(=O)c1ccc(C2Nc3ccc(S(=O)(=O)Nc4ccc(Cl)c(Cl)c4)cc3C3OCCC23)cc1` (stereo unspecified) was 5.6 µM. Take `Cc1ccc(NS(=O)(=O)c2ccc3c(c2)C2OCCC2C(c2ccc(C(=O)C4CCCCC4)cc2)N3)cc1C` (stereo unspecified): the IC50 came out at 3.1 µM.

For `COC(=O)c1ccc(C2Nc3ccc(S(=O)(=O)Nc4ccc(C)c(C)c4)cc3C3c4ccccc4CC23)cc1` (stereo unspecified), the IC50 is 18.3 µM. The same measure, in the same setting: as for `Cc1ccc(NS(=O)(=O)c2ccc3c(c2)C2OCCC2C(c2ccc(C(O)C(C)C)cc2)N3)cc1C` (stereo unspecified), the figure is 2 µM; as for `Cc1ccc(NS(=O)(=O)c2ccc3c(c2)[C@H]2OCC[C@H]2[C@H](c2ccc(C(=O)C(C)C)cc2)N3)cc1C`, 2.4 µM; as for `CCCC(=O)c1ccc(C2Nc3ccc(S(=O)(=O)Nc4ccc(C)c(C)c4)cc3C3OCCC23)cc1` (stereo unspecified), 2.9 µM. With `Cc1cccc(NS(=O)(=O)c2ccc3c(c2)C2OCCC2C(c2ccc(C(=O)C(C)C)cc2)N3)c1` (stereo unspecified), the half-inhibitory concentration (IC50) turned out to be 1.4 µM. Turning to `Cc1ccc(NS(=O)(=O)c2ccc3c(c2)C2OCCC2C(c2ccc(S(C)(=O)=O)cc2)N3)cc1C` (stereo unspecified), the half-maximal inhibitory concentration (IC50) amounted to 4.1 µM. On the same count and under the same terms, as for `Cc1ccc(N(C)S(=O)(=O)c2ccc3c(c2)C2OCCC2C(c2ccc(C(=O)C(C)C)cc2)N3C)cc1C` (stereo unspecified), the figure is 1.2 µM.

Consider `COC(=O)c1ccc(C2Nc3ccc(S(=O)(=O)Nc4ccc(C)c(C)c4)cc3C3C=CCC32)cc1` (stereo unspecified), for which the IC50 is 4.7 µM.

Turning to `CC(C)C(=O)c1ccc(C2Nc3ccc(S(=O)(=O)Nc4ccccc4)cc3C3OCCC23)cc1` (stereo unspecified), the IC50 is 3.2 µM. The same measure, in the same setting: the value for `Cc1ccc(NS(=O)(=O)c2ccc3c(c2)C2OCCC2C(c2ccc(C(C)C)cc2)N3)cc1C` (stereo unspecified) was 4.2 µM.

Turning to `Cc1cc(NS(=O)(=O)c2ccc3c(c2)C2OCCC2C(c2ccc(C(=O)C(C)C)cc2)N3)ccc1Cl` (stereo unspecified), the concentration for half-maximal inhibition (IC50) stood at 6.3 µM.

For the compound `Cc1ccc(NS(=O)(=O)c2ccc3c(c2)[C@H]2OCC[C@H]2[C@@H](c2ccc(C(=O)C(C)C)cc2)N3)cc1C`, the IC50 was 0.3 µM.

In the case of `Cc1ccc(NS(=O)(=O)c2ccc3c(c2)C2NCCC2C(c2ccc(C(=O)O)cc2)N3)cc1C` (stereo unspecified), the IC50 is greater than 50 µM. Still for that read-out and setting: the value for `Cc1cc(NS(=O)(=O)c2ccc3c(c2)C2OCCC2C(c2ccc(C(=O)C(C)C)cc2)N3)ccc1C(F)(F)F` (stereo unspecified) was 7.2 µM.

System in another data set: not listed separately
Kind of data set: Inhibition of colony formation in human BFU-E cells assessed as reduction in colony number and size at 1 uM incubated for 14 days by crystal violet staining based analysis. Type of data set: toxicity, cell-based. The following applies: 336 h, time 14 day.
For `COc1cccc2c1C(=O)c1c(O)c3c(c(O)c1C2=O)C[C@@](O)(C(=O)CO)C[C@@H]3O[C@H]1C[C@H](N)[C@H](O)[C@H](C)O1` [DOXORUBICIN], the Activity result was “Toxic”.
